From patent publication US11643429B2, “Compounds and methods for the treatment of ocular disorders” (Azura Ophthalmics Ltd., priority 2019, dated 2023)
Where two headings read alike, the source gives them in different places.

Key:
[1] = Aqueous Hydrolysis Stability Assay; type: physicochemical; conditions: 50 mM HEPES buffer pH 7.5, read-out: T1/2 Aq Stability
Protocol: Determination of aqueous stability of the test compounds was performed using HIPLC-MS. A test compound 10 mM stock solution was prepared in DMSO. 10 μl of the DMSO stock solution was dissolved in 990 μl of 50 mM HEPES pH 7.5 buffer or 1:1 (v/v) of Acetonitrile:Water to make a 100 μM solution. Final DMSO concentration was 1%. The solution was kept at room temperature and injected without delay into the LCMS (Waters Xevo TQ-S or Micromass Ultima). Additional injections were performed at appropriate time points. Half-life (T1/2) of the parent conjugate was calculated using the peak area of the parent conjugate at each time point in the linear region of the log-linear plot.

[2] = Rabbit Cornea Homogenate Stability Assay (Rabbit Cornea Esterase Assay); type: in vitro ADME; conditions: New Zealand White, 37° C., half-life of parent conjugate
Protocol: Determining Rabbit Cornea Homogenate stability of the test compounds was performed using HPLC-MS. The assay was performed at two concentrations of Rabbit Cornea Homogenate (0.15 mg/ml and 0.45 mg/ml total protein) so that any hydrolysis observed could be assigned as esterase dependent or not.
Five rabbit corneas (e.g. New Zealand Whites) of approx. 50 mg each were sliced and scraped with a scalpel and tweezers until reduced to small (1-3 mm), thin pieces. These were transferred into a tared vial and accurately weighed, then diluted with 10 volumes aqueous PBS pH7.4
Sample was cooled intermittently on ice and shear homogenized for 3 minutes, then centrifuged for 3 min at 3000 rpm. The supernatant was pipetted off into a vial, and total protein concentration determined at 280 nm. Sample was stored at −78° C.
10 mM Compound stocks were diluted to 100 μM in a 96 deep-well plate: 10 μl of 10 mM Compound stock was added to 990 μl 50 mM HEPES, pH7.5 buffer.
Compounds were further diluted to 10 μM: 100 μl of 100 μM compound was added to 900 μl 50 mM HEPES, pH7.5 buffer.
Esterase homogenate was diluted to 300 ng/μl and 900 ng/μl
A heater shaker was set to 37° C. Into a suitable 96 well plate (Run Plate), 75 μl of 300 or 900 ng/μl esterase homogenate was pipetted into each of the required wells (2 min, 5 min, 10 min, 20 min and 45 min). The plate was sealed and then warmed at 37° C. for 5 min. Another 96 well PCR plate was put on ice (Kill Plate). To this was added 100 μl of MeCN to each well, labelled 0 min 2 min, 5 min, 10 min, 20 min and 45 min. The plate was covered to minimise evaporation. For the T=0 sample only, to the 100 μl cold MeCN stop solution was added 50 μl of 300 or 900 ng/μl esterase homogenate followed by 50 μl of 10 μM compound solution For the remaining timepoints, 75 μl of 10 μM compound solution was added to the Run Plate starting from T=45 min row and ending with T=2 min row. At the appropriate time point, 100 μl of the assay mixture was added to the matching kill plate well containing 100 μl of cold MeCN. Samples were analysed as soon as practicable by LCMS (Waters Xevo TQ-S or Micromass Ultima). Parent conjugate and parent concentrations were determined against appropriate standard response curves and the half-life (T1/2) of the parent conjugate was calculated using the peak area of the parent conjugate at each time point in the linear region of the log-linear plot.

[3] = pH 7.5, Rabbit Cornea Homogenate 0.15 mg/ml total protein, read-out: T1/2 Esterase (min) (0.15 mg/ml Homogenate)
[4] = pH 7.5, Rabbit Cornea Homogenate 0.45 mg/ml total protein, read-out: T1/2 Esterase (min) (0.45 mg/ml Homogenate)

half-life at 100 µM ([1]; ND, estimated, in HEPES pH 7.5) [min] | half-life at 100 µM ([1]; HEPES pH 7.5, room temperature) [min] | half-life at 5 µM [2, 3] [min] | half-life at 5 µM [2, 4] [min] | SMILES
< 3 | – | – | – | CC[C@H]1OC(=O)[C@H](C)[C@@H](O[C@H]2C[C@@](C)(OC)[C@@H](O)[C@H](C)O2)[C@H](C)[C@@H](O[C@@H]2O[C@H](C)C[C@H](N(C)C)[C@H]2OC(=O)CO)[C@](C)(O)C[C@@H](C)CN(C)[C@H](C)[C@@H](O)[C@]1(C)O [Compound 1, (2S,3R,4S,6R)-4-(Dimethylamino)-2-(((2R,3S,4R,5R,8R,10R,11R,12S,13S,14R)-2-ethyl-3,4,10-trihydroxy-13-(((2R,4R,5S,6S)-5-hydroxy-4-methoxy-4,6-dimethyltetrahydro-2H-pyran-2-yl)oxy)-3,5,6,8,10,12,14-heptamethyl-15-oxo-1-oxa-6-azacyclopentadecan-11-yl)oxy)-6-methyltetrahydro-2H-pyran-3-yl 2-hydroxyacetate]
– | < 3 | – | – | CC[C@H]1OC(=O)[C@H](C)[C@@H](O[C@H]2C[C@@](C)(OC)[C@@H](O)[C@H](C)O2)[C@H](C)[C@@H](O[C@@H]2O[C@H](C)C[C@H](N(C)C)[C@H]2OC(=O)[C@@H](C)O)[C@](C)(O)C[C@@H](C)CN(C)[C@H](C)[C@@H](O)[C@]1(C)O [Compound 2, (2S,3R,4S,6R)-4-(Dimethylamino)-2-(((2R,3S,4R,5R,8R,10R,11R,12S,13S,14R)-2-ethyl-3,4,10-trihydroxy-13-(((2R,4R,5S,6S)-5-hydroxy-4-methoxy-4,6-dimethyltetrahydro-2H-pyran-2-yl)oxy)-3,5,6,8,10,12,14-heptamethyl-15-oxo-1-oxa-6-azacyclopentadecan-11-yl)oxy)-6-methyltetrahydro-2H-pyran-3-yl (R)-2-hydroxypropanoate]
– | 5.7 | – | – | CC[C@H]1OC(=O)[C@H](C)[C@@H](O[C@H]2C[C@@](C)(OC)[C@@H](O)[C@H](C)O2)[C@H](C)[C@@H](O[C@@H]2O[C@H](C)C[C@H](N(C)C)[C@H]2OC(=O)COCCOCCOCCOCCO)[C@](C)(O)C[C@@H](C)CN(C)[C@H](C)[C@@H](O)[C@]1(C)O [Compound 4, (2S,3R,4S,6R)-4-(Dimethylamino)-2-(((2R,3S,4R,5R,8R,10R,11R,12S,13S,14R)-2-ethyl-3,4,10-trihydroxy-13-(((2R,4R,5S,6S)-5-hydroxy-4-methoxy-4,6-dimethyltetrahydro-2H-pyran-2-yl)oxy)-3,5,6,8,10,12,14-heptamethyl-15-oxo-1-oxa-6-azacyclopentadecan-11-yl)oxy)-6-methyltetrahydro-2H-pyran-3-yl 14-hydroxy-3,6,9,12-tetraoxatetradecanoate]
– | 72 | 21 | 24 | CC[C@H]1OC(=O)[C@H](C)[C@@H](O[C@H]2C[C@@](C)(OC)[C@@H](O)[C@H](C)O2)[C@H](C)[C@@H](O[C@@H]2O[C@H](C)C[C@H](N(C)C)[C@H]2OC(=O)CCOCCOCCOCCOCCO)[C@](C)(O)C[C@@H](C)CN(C)[C@H](C)[C@@H](O)[C@]1(C)O [Compound 5, (2S,3R,4S,6R)-4-(Dimethylamino)-2-(((2R,3S,4R,5R,8R,10R,11R,12S,13S,14R)-2-ethyl-3,4,10-trihydroxy-13-(((2R,4R,5S,6S)-5-hydroxy-4-methoxy-4,6-dimethyltetrahydro-2H-pyran-2-yl)oxy)-3,5,6,8,10,12,14-heptamethyl-15-oxo-1-oxa-6-azacyclopentadecan-11-yl)oxy)-6-methyltetrahydro-2H-pyran-3-yl 1-hydroxy-3,6,9,12-tetraoxapentadecan-15-oate]
< 3 | – | – | – | CC[C@H]1OC(=O)[C@H](C)[C@@H](O[C@H]2C[C@@](C)(OC)[C@@H](O)[C@H](C)O2)[C@H](C)[C@@H](O[C@@H]2O[C@H](C)C[C@H](N(C)C)[C@H]2OC(=O)CCCC[C@@H]2CCSS2)[C@](C)(O)C[C@@H](C)CN(C)[C@H](C)[C@@H](O)[C@]1(C)O [Compound 9, (2S,3R,4S,6R)-4-(Dimethylamino)-2-(((2R,3S,4R,5R,8R,10R,11R,12S,13S,14R)-2-ethyl-3,4,10-trihydroxy-13-(((2R,4R,5S,6S)-5-hydroxy-4-methoxy-4,6-dimethyltetrahydro-2H-pyran-2-yl)oxy)-3,5,6,8,10,12,14-heptamethyl-15-oxo-1-oxa-6-azacyclopentadecan-11-yl)oxy)-6-methyltetrahydro-2H-pyran-3-yl 5-((R)-1,2-dithiolan-3-yl)pentanoate]

Further lines, the compound ahead of its results:

SMILES | half-life at 100 µM ([1]; ND, estimated, in HEPES pH 7.5) [min] | half-life at 100 µM ([1]; HEPES pH 7.5, room temperature) [min] | half-life at 5 µM [2, 3] [min] | half-life at 5 µM [2, 4] [min]
CC[C@H]1OC(=O)[C@H](C)[C@@H](O[C@H]2C[C@@](C)(OC)[C@@H](O)[C@H](C)O2)[C@H](C)[C@@H](O[C@@H]2O[C@H](C)C[C@H](N(C)C)[C@H]2OC(=O)Cc2ccc(OC)cc2)[C@](C)(O)C[C@@H](C)CN(C)[C@H](C)[C@@H](O)[C@]1(C)O [Compound 3, (2S,3R,4S,6R)-4-(Dimethylamino)-2-(((2R,3S,4R,5R,8R,10R,11R,12S,13S,14R)-2-ethyl-3,4,10-trihydroxy-13-(((2R,4R,5S,6S)-5-hydroxy-4-methoxy-4,6-dimethyltetrahydro-2H-pyran-2-yl)oxy)-3,5,6,8,10,12,14-heptamethyl-15-oxo-1-oxa-6-azacyclopentadecan-1-yl)oxy)-6-methyltetrahydro-2H-pyran-3-yl 2-(4-methoxyphenyl)acetate] | – | 42 | 35 | 39
CC[C@H]1OC(=O)[C@H](C)[C@@H](O[C@H]2C[C@@](C)(OC)[C@@H](O)[C@H](C)O2)[C@H](C)[C@@H](O[C@@H]2O[C@H](C)C[C@H](N(C)C)[C@H]2OC(=O)[C@@H](C)OC(=O)[C@H](CS)NC(C)=O)[C@](C)(O)C[C@@H](C)CN(C)[C@H](C)[C@@H](O)[C@]1(C)O [Compound 6, (R)-1-(((2S,3R,4S,6R)-4-(Dimethylamino)-2-(((2R,3S,4R,5R,8R,10R,11R,12S,13S,14R)-2-ethyl-3,4,10-trihydroxy-13-(((2R,4R,5S,6S)-5-hydroxy-4-methoxy-4,6-dimethyltetrahydro-2H-pyran-2-yl)oxy)-3,5,6,8,10,12,14-heptamethyl-15-oxo-1-oxa-6-azacyclopentadecan-11-yl)oxy)-6-methyltetrahydro-2H-pyran-3-yl)oxy)-1-oxopropan-2-yl acetyl-L-cysteinate] | < 3 | – | – | –
CC[C@H]1OC(=O)[C@H](C)[C@@H](O[C@H]2C[C@@](C)(OC)[C@@H](O)[C@H](C)O2)[C@H](C)[C@@H](O[C@@H]2O[C@H](C)C[C@H](N(C)C)[C@H]2OC(=O)[C@H](C)OC(=O)[C@@H](C)O)[C@](C)(O)C[C@@H](C)CN(C)[C@H](C)[C@@H](O)[C@]1(C)O [Compound 7, (2S,3R,4S,6R)-4-(Dimethylamino)-2-(((2R,3S,4R,5R,8R,10R,11R,12S,13S,14R)-2-ethyl-3,4,10-trihydroxy-13-(((2R,4R,5S,6S)-5-hydroxy-4-methoxy-4,6-dimethyltetrahydro-2H-pyran-2-yl)oxy)-3,5,6,8,10,12,14-heptamethyl-15-oxo-1-oxa-6-azacyclopentadecan-11-yl)oxy)-6-methyltetrahydro-2H-pyran-3-yl(S)-2-(((R)-2-hydroxypropanoyl)oxy)propanoate] | < 3 | – | – | –
CC[C@H]1OC(=O)[C@H](C)[C@@H](O[C@H]2C[C@@](C)(OC)[C@@H](O)[C@H](C)O2)[C@H](C)[C@@H](O[C@@H]2O[C@H](C)C[C@H](N(C)C)[C@H]2OC(=O)[C@@H](C)OC(C)=O)[C@](C)(O)C[C@@H](C)CN(C)[C@H](C)[C@@H](O)[C@]1(C)O [Compound 8, (2S,3R,4S,6R)-4-(Dimethylamino)-2-(((2R,3S,4R,5R,8R,10R,11R,12S,13S,14R)-2-ethyl-3,4,10-trihydroxy-13-(((2R,4R,5S,6S)-5-hydroxy-4-methoxy-4,6-dimethyltetrahydro-2H-pyran-2-yl)oxy)-3,5,6,8,10,12,14-heptamethyl-15-oxo-1-oxa-6-azacyclopentadecan-11-yl)oxy)-6-methyltetrahydro-2H-pyran-3-yl (R)-2-acetoxypropanoate] | < 3 | – | – | –
